# Results taken from ChEMBL document CHEMBL1201862, “PubChem BioAssay data set” (2004).
#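 Assay format: 96-well plates, 48-hour exposure. GI50 = concentration required for 50% inhibition of growth.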 Active and inactive are the calls of the source. No stated cut-off is given here; in the data, active = GI50 up to about 1.1 µM and inactive = higher.
# How the values were obtained:
# Test in all cases: NCI tumour cell line growth inhibition, 48 h
# [1] = tested on: SF-295
# [2] = tested on: SN12C
# [3] = tested on: SK-MEL-28
# [4] = tested on: T47D
# [5] = tested on: BT-549
# [6] = tested on: SNB-75
# [7] = tested on: NCI-H23
# [8] = tested on: CAKI-1
# [9] = tested on: COLO 205
# [10] = tested on: NCI-H226
# [11] = tested on: OVCAR-8
# [12] = tested on: K562
# [13] = tested on: Hs-578T
# [14] = tested on: OVCAR-4
# [15] = tested on: SW-620
# [16] = tested on: SK-MEL-2
# [17] = tested on: TK-10
# [18] = tested on: OVCAR-5
# [19] = tested on: Malme-3M
# [20] = tested on: MDA-MB-435
# [21] = tested on: HOP-92
# [22] = tested on: OVCAR-3
# [23] = tested on: LOX IMVI
# [24] = tested on: HCT-15
# [25] = tested on: ACHN
# [26] = tested on: HCC 2998
# [27] = tested on: IGROV-1
# [28] = tested on: CCRF-CEM
# [29] = tested on: NCI-H460
# [30] = tested on: SNB-19
# [31] = tested on: RPMI-8226
# [32] = tested on: HL-60
# [33] = tested on: HOP-62
# [34] = tested on: PC-3
# [35] = tested on: HT-29
# [36] = tested on: 786-0
# [37] = tested on: RXF 393
# [38] = tested on: MDA-N
# [39] = tested on: SR
# [40] = tested on: DU-145
# [41] = tested on: NCI/ADR-RES
# [42] = tested on: EKVX
# [43] = tested on: UACC-62
# [44] = tested on: UO-31
# [45] = tested on: MOLT-4
# [46] = tested on: A549
# [47] = tested on: MCF7
# [48] = tested on: KM12
# [49] = tested on: SF-539
# [50] = tested on: M14
# [51] = tested on: SF-268
# [52] = tested on: UACC-257
# [53] = tested on: NCI-H522
# [54] = tested on: U-251
# [55] = tested on: SK-OV-3
# [56] = tested on: MDA-MB-231
# [57] = tested on: HCT-116
# [58] = tested on: SK-MEL-5
structure (smiles),measurement,setting,value
COc1cc(N(CCC#N)CCC#N)ccc1C(=N/NC(=O)c1cc(Br)ccc1O)/N=N/c1ccc(C)cc1,GI50,[1],31 µM (inactive)
same,GI50,[2],17.3 µM (inactive)
same,GI50,[3],25.1 µM (inactive)
same,GI50,[4],4.36 µM (inactive)
same,GI50,[5],18 µM (inactive)
same,GI50,[6],22.6 µM (inactive)
same,GI50,[7],17 µM (inactive)
same,GI50,[8],27.9 µM (inactive)
same,GI50,[9],15.7 µM (inactive)
same,GI50,[10],32.4 µM (inactive)
same,GI50,[11],22.8 µM (inactive)
same,GI50,[12],37.2 µM (inactive)
same,GI50,[13],40.2 µM (inactive)
same,GI50,[14],18.4 µM (inactive)
same,GI50,[15],29.7 µM (inactive)
same,GI50,[16],23.7 µM (inactive)
same,GI50,[17],23.9 µM (inactive)
same,GI50,[18],61.4 µM (inactive)
same,GI50,[19],29.3 µM (inactive)
same,GI50,[20],44.9 µM (inactive)
same,GI50,[21],20.8 µM (inactive)
same,GI50,[22],22.9 µM (inactive)
same,GI50,[23],17.9 µM (inactive)
same,GI50,[24],12.2 µM
same,GI50,[25],27 µM (inactive)
same,GI50,[26],19.7 µM (inactive)
same,GI50,[27],4.32 µM (inactive)
same,GI50,[28],4.5 µM (inactive)
same,GI50,[29],15.5 µM (inactive)
same,GI50,[30],25.6 µM (inactive)
same,GI50,[31],22.2 µM (inactive)
same,GI50,[32],15.4 µM (inactive)
same,GI50,[33],20.2 µM (inactive)
same,GI50,[34],20.6 µM (inactive)
same,GI50,[35],32.6 µM (inactive)
same,GI50,[36],32.1 µM (inactive)
same,GI50,[37],19.3 µM (inactive)
same,GI50,[38],30.9 µM (inactive)
same,GI50,[39],24.3 µM (inactive)
same,GI50,[40],27.4 µM (inactive)
same,GI50,[41],27.1 µM (inactive)
same,GI50,[42],21.7 µM (inactive)
same,GI50,[43],18.5 µM (inactive)
same,GI50,[44],18.5 µM (inactive)
same,GI50,[45],14 µM (inactive)
same,GI50,[46],28.8 µM (inactive)
same,GI50,[47],17.4 µM (inactive)
same,GI50,[48],17 µM (inactive)
same,GI50,[49],29 µM (inactive)
same,GI50,[50],28.3 µM (inactive)
same,GI50,[51],15.4 µM (inactive)
same,GI50,[52],25.1 µM (inactive)
same,GI50,[53],18 µM (inactive)
same,GI50,[54],37.4 µM (inactive)
same,GI50,[55],24.2 µM (inactive)
same,GI50,[56],15.5 µM (inactive)
same,GI50,[57],16.1 µM (inactive)
same,GI50,[58],17.1 µM (inactive)
CC(C)(C)[Si](C)(C)OCC1OC(n2cnc3c(N)ncnc32)C(O)C1O (centres undefined),GI50,[1],> 100 µM (inactive)
same,GI50,[2],> 100 µM (inactive)
same,GI50,[3],> 100 µM (inactive)
same,GI50,[4],24.4 µM (inactive)
same,GI50,[5],69.5 µM (inactive)
same,GI50,[6],59.8 µM (inactive)
same,GI50,[7],71 µM (inactive)
same,GI50,[8],> 100 µM (inactive)
same,GI50,[9],> 100 µM (inactive)
same,GI50,[10],> 100 µM (inactive)
same,GI50,[11],> 100 µM (inactive)
same,GI50,[12],70.6 µM (inactive)
same,GI50,[13],44.5 µM (inactive)
same,GI50,[14],> 100 µM (inactive)
same,GI50,[15],> 100 µM (inactive)
same,GI50,[16],> 100 µM (inactive)
same,GI50,[17],> 100 µM (inactive)
same,GI50,[18],> 100 µM (inactive)
same,GI50,[19],> 100 µM (inactive)
same,GI50,[20],> 100 µM (inactive)
same,GI50,[22],76 µM (inactive)
same,GI50,[23],> 100 µM (inactive)
same,GI50,[24],> 100 µM
same,GI50,[25],> 100 µM (inactive)
same,GI50,[27],> 100 µM (inactive)
same,GI50,[28],95.9 µM (inactive)
same,GI50,[29],> 100 µM (inactive)
same,GI50,[30],> 100 µM (inactive)
same,GI50,[31],81.3 µM (inactive)
same,GI50,[32],> 100 µM (inactive)
same,GI50,[33],> 100 µM (inactive)
same,GI50,[34],43.5 µM (inactive)
same,GI50,[35],> 100 µM (inactive)
same,GI50,[36],> 100 µM (inactive)
same,GI50,[37],36.7 µM (inactive)
same,GI50,[38],> 100 µM (inactive)
same,GI50,[39],60.8 µM (inactive)
same,GI50,[40],> 100 µM (inactive)
same,GI50,[41],87.7 µM (inactive)
same,GI50,[42],> 100 µM (inactive)
same,GI50,[43],22.1 µM (inactive)
same,GI50,[44],65.6 µM (inactive)
same,GI50,[45],39.6 µM (inactive)
same,GI50,[46],> 100 µM (inactive)
same,GI50,[47],> 100 µM (inactive)
same,GI50,[48],37.3 µM (inactive)
same,GI50,[49],> 100 µM (inactive)
same,GI50,[50],> 100 µM (inactive)
same,GI50,[51],> 100 µM (inactive)
same,GI50,[52],> 100 µM (inactive)
same,GI50,[53],> 100 µM (inactive)
same,GI50,[54],> 100 µM (inactive)
same,GI50,[55],30.7 µM (inactive)
same,GI50,[56],96.4 µM (inactive)
same,GI50,[57],> 100 µM (inactive)
same,GI50,[58],26.5 µM (inactive)
